According to patent US9328099B2, “Cyanomethylpyrazole carboxamides as janus kinase inhibitors” (Merck Sharp & Dohme Corp., priority 2011, dated 2016):
pIC50: −log10 of the molar value.

The compounds below were run against JAK1 (Homo sapiens (Human), UniProt P23458) (assay: Jak Biochemical HTRF Assay, JAK1). Conditions: HTRF biochemical assay, GST-tagged catalytic domain; top concentration tested […]; read-out: JAK1 IC50.
Source text: Jak Biochemical HTRF Assay Protocol
Subsequent reagent additions employed an Agilent Bravo.

Sequence of JAK1 (P23458 875-1153): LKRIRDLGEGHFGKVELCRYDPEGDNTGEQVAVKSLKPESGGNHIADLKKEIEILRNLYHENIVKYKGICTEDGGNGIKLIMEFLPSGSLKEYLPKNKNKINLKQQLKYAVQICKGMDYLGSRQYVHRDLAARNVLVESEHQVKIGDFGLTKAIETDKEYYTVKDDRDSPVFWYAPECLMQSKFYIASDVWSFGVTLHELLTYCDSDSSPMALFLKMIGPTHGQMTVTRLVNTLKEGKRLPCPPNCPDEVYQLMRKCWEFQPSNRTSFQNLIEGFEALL

Row | Structure (SMILES) | pIC50
1 | CC(F)(F)C(=O)N1CC[C@](CC#N)(n2cc(C(N)=O)c(Nc3ccc(F)nc3)n2)[C@H](F)C1 (single isomer, unassigned) [Example 43-3, 1-((3R,4R or 3S,4S)-4-(cyanomethyl)-1-(2,2-difluoropropanoyl)-3-fluoropiperidin-4-yl)-3-((6-fluoropyridin-3-yl)amino)-1H-pyrazole-4-carboxamide] | 9.05
2 | CC(F)(F)C(=O)N1CC[C@@](CC#N)(n2cc(C(N)=O)c(Nc3ccc(F)nc3)n2)[C@@H](F)C1 (single isomer, unassigned) [Example 43-4, 1-((3R,4R or 3S,4S)-4-(cyanomethyl)-1-(2,2-difluoropropanoyl)-3-fluoropiperidin-4-yl)-3-((6-fluoropyridin-3-yl)amino)-1H-pyrazole-4-carboxamide] | 10.30
3 | N#CCC1(n2cc(C(N)=O)c(Nc3ccnc(F)c3)n2)CCN(C(=O)OC2CCOC2)CC1 (single isomer, unassigned) [Example 49-1, (3S or 3R)-tetrahydrofuran-3-yl 4-{4-carbamoyl-3-[(2-fluoropyridin-4-yl)amino]-1H-pyrazol-1-yl}-4-(cyanomethyl)piperidine-1-carboxylate] | 9.22
4 | N#CCC1(n2cc(C(N)=O)c(Nc3ccnc(F)c3)n2)CCN(C(=O)OC2CCOC2)CC1 (single isomer, unassigned) [Example 49-2, (3S or 3R)-tetrahydrofuran-3-yl 4-{4-carbamoyl-3-[(2-fluoropyridin-4-yl)amino]-1H-pyrazol-1-yl}-4-(cyanomethyl)piperidine-1-carboxylate] | 9.40
5 | CC(C)(C)OC(=O)C1CCC(CC#N)(n2cc(C(N)=O)c(Nc3ccccc3)n2)CC1 (stereo not shown) [Example 2-18, tert-butyl 4-[4-carbamoyl-3-(phenylamino)-1H-pyrazol-1-yl]-4-(cyanomethyl) cyclohexanecarboxylate] | 8.52
6 | N#CCC1(n2cc(C(N)=O)c(Nc3ccc(F)cc3)n2)CCN(c2cncc3ccccc23)CC1 [Example 3-2, 1-[4-(cyanomethyl)-1-isoquinolin-4-ylpiperidin-4-yl]-3-[(4-fluorophenyl)amino]-1H-pyrazole-4-carboxamide] | 8.22
7 | CC(C)(O)c1cccc(N2CCC(CC#N)(n3cc(C(N)=O)c(Nc4ccc(F)cc4)n3)CC2)n1 [Example 3-7, 1-{4-(cyanomethyl)-1-[6-(1-hydroxy-1-methylethyl)pyridin-2-yl]piperidin-4-yl}-3-[(4-fluorophenyl)amino]-1H-pyrazole-4-carboxamide] | 9.52
8 | Cc1cccc(N2CCC(CC#N)(n3cc(C(N)=O)c(Nc4ccc(F)cc4)n3)CC2)n1 [Example 3-20, 1-[4-(cyanomethyl)-1-(6-methylpyridin-2-yl)piperidin-4-yl]-3-[(4-fluorophenyl)amino]-1H-pyrazole-4-carboxamide] | 8.30
9 | N#CCC1(n2cc(C(N)=O)c(Nc3ccc(F)cc3)n2)CCN(c2ccc(F)nc2)CC1 [Example 3-22, 1-[4-(cyanomethyl)-1-(6-fluoropyridin-3-yl)piperidin-4-yl]-3-[(4-fluorophenyl)amino]-1H-pyrazole-4-carboxamide] | 9.40
10 | N#CCC1(n2cc(C(N)=O)c(Nc3ccc(F)cc3)n2)CCN(c2cncnc2)CC1 [Example 3-24, 1-[4-(cyanomethyl)-1-pyrimidin-5-ylpiperidin-4-yl]-3-[(4-fluorophenyl)amino]-1H-pyrazole-4-carboxamide] | 10.00
11 | N#CCC1(n2cc(C(N)=O)c(Nc3ccc(F)cc3)n2)CCN(c2cccc(F)c2)CC1 [Example 3-27, 1-[4-(cyanomethyl)-1-(3-fluorophenyl)piperidin-4-yl]-3-[(4-fluorophenyl)amino]-1H-pyrazole-4-carboxamide] | 9.00
12 | CS(=O)(=O)c1ccc(Nc2nn(C3(CC#N)CCOCC3)cc2C(N)=O)cc1 [Example 4-5, 1-[4-(cyanomethyl)tetrahydro-2H-pyran-4-yl]-3-{[4-(methylsulfonyl)phenyl]amino}-1H-pyrazole-4-carboxamide] | 7.66
13 | N#CCC1(n2cc(C(N)=O)c(Nc3ccc(F)cc3)n2)CCSCC1 [Example 7, 1-(4-(Cyanomethyl)tetrahydro-2H-thiopyran-4-yl)-3-((4-fluorophenyl)amino)-1H-pyrazole-4-carboxamide] | 8.10
14 | CC(C)(C)OC(=O)N1CCC(CC#N)(n2cc(C(N)=O)c(Nc3ccc(S(=O)(=O)C(F)(F)F)cc3)n2)CC1 [Example 9-15, tert-butyl 4-[4-carbamoyl-3-({4-[(trifluoromethyl)sulfonyl]phenyl}amino)-1H-pyrazol-1-yl]-4-(cyanomethyl)piperidine-1-carboxylate] | 8.70
15 | COc1cc(Nc2nn(C3(CC#N)CCN(C(=O)OC(C)(C)C)CC3)cc2C(N)=O)ccn1 [Example 9-19, tert-butyl 4-{4-carbamoyl-3-[(2-methoxypyridin-4-yl)amino]-1H-pyrazol-1-yl}-4-(cyanomethyl)piperidine-1-carboxylate] | 8.22
16 | CC(C)(C)OC(=O)N1CCC(CC#N)(n2cc(C(N)=O)c(Nc3ccnc(C(F)(F)F)c3)n2)CC1 [Example 9-23, tert-butyl 4-(4-carbamoyl-3-{[2-(trifluoromethyl)pyridin-4-yl]amino}-1H-pyrazol-1-yl)-4-(cyanomethyl)piperidine-1-carboxylate] | 9.40

Row | Structure (SMILES) | pIC50
17 | CC(C)(C)OC(=O)N1CCC(CC#N)(n2cc(C(N)=O)c(Nc3ccnc(C(N)=O)c3)n2)CC1 [Example 9-27, tert-butyl 4-{4-carbamoyl-3-[(2-carbamoylpyridin-4-yl)amino]-1H-pyrazol-1-yl}-4-(cyanomethyl)piperidine-1-carboxylate] | 9.40
18 | N#CCC1(n2cc(C(N)=O)c(Nc3ccc(OC4CCC4)nc3)n2)CCN(C(=O)OCC(F)F)CC1 [Example 9-37, 2,2-difluoroethyl 4-(4-carbamoyl-3-{[6-(cyclobutyloxy)pyridin-3-yl]amino}-1H-pyrazol-1-yl)-4-(cyanomethyl)piperidine-1-carboxylate] | 9.70
19 | N#CCC1(n2cc(C(N)=O)c(Nc3ccc(C4CC4)nc3)n2)CCN(C(=O)OCC(F)F)CC1 [Example 9-40, 2,2-difluoroethyl 4-{4-carbamoyl-3-[(6-cyclopropylpyridin-3-yl)amino]-1H-pyrazol-1-yl}-4-(cyanomethyl)piperidine-1-carboxylate] | 9.15
20 | CC(C)(O)c1ccc(Nc2nn(C3(CC#N)CCN(C(=O)OCC(F)(F)F)CC3)cc2C(N)=O)cn1 [Example 10-1, 2,2,2-Trifluoroethyl 4-(4-carbamoyl-3-(6-(2-hydroxypropan-2-yl)pyridin-3-ylamino)-1H-pyrazol-1-yl)-4-(cyanomethyl)piperidine-1-carboxylate] | 10.00
21 | CC(C)(C)OC(=O)N1CCC(CC#N)(n2cc(C(N)=O)c(Nc3cccc(Br)c3)n2)CC1 [Example 12-1, tert-Butyl 4-{3-[(3-bromophenyl)amino]-4-carbamoyl-1H-pyrazol-1-yl}-4-(cyanomethyl)piperidine-1-carboxylate] | 9.00
22 | COc1cccc(Nc2nn(C3(CC#N)CCN(C(=O)OC(C)(C)C)CC3)cc2C(N)=O)n1 [Example 13-9, tert-butyl 4-(4-carbamoyl-3-(6-methoxypyridin-2-ylamino)-1H-pyrazol-1-yl)-4-(cyanomethyl)piperidine-1-carboxylate] | 8.00
23 | N#CCC1(n2cc(C(N)=O)c(Nc3ccccc3)n2)CCN(Cc2cccc(C#N)c2)CC1 [Example 21-3, 1-[1-(3-cyanobenzyl)-4-(cyanomethyl)piperidin-4-yl]-3-(phenylamino)-1H-pyrazole-4-carboxamide] | 7.10
24 | N#CCC1(n2cc(C(N)=O)c(Nc3ccccc3)n2)CCN(Cc2cc3ccccc3o2)CC1 [Example 21-20, 1-[1-(1-benzofuran-2-ylmethyl)-4-(cyanomethyl)piperidin-4-yl]-3-(phenylamino)-1H-pyrazole-4-carboxamide] | 8.00
25 | N#CCC1(n2cc(C(N)=O)c(Nc3ccnc(F)c3)n2)CCN(CCc2ccccc2)CC1 [Example 22-64, 1-[4-(cyanomethyl)-1-(2-phenylethyl)piperidin-4-yl]-3-[(2-fluoropyridin-4-yl)amino]-1H-pyrazole-4-carboxamide] | 8.40
26 | COc1ccccc1CN1CCC(CC#N)(n2cc(C(N)=O)c(Nc3ccnc(F)c3)n2)CC1 [Example 22-66, 1-[4-(cyanomethyl)-1-(2-methoxybenzyl)piperidin-4-yl]-3-[(2-fluoropyridin-4-yl)amino]-1H-pyrazole-4-carboxamide] | 8.70
27 | N#CCC1(n2cc(C(N)=O)c(Nc3ccnc(F)c3)n2)CCN(Cc2ccc(O)nc2)CC1 [Example 22-68, 1-{4-(cyanomethyl)-1-[(6-hydroxypyridin-3-yl)methyl]piperidin-4-yl}-3-[(2-fluoropyridin-4-yl)amino]-1H-pyrazole-4-carboxamide] | 10.00
28 | CC(OC(=O)N1CCC(CC#N)(n2cc(C(N)=O)c(Nc3ccc(F)cc3)n2)CC1)C1CC1 (stereo not shown) [Example 30-12, 1-cyclopropylethyl 4-(4-carbamoyl-3-(4-fluorophenylamino)-1H-pyrazol-1-yl)-4-(cyanomethyl)piperidine-1-carboxylate] | 8.22
29 | N#CCC1(n2cc(C(N)=O)c(Nc3ccnc(F)c3)n2)CCN(C(=O)OC2CCOC2)CC1 (stereo not shown) [Example 30-16, tetrahydrofuran-3-yl 4-{4-carbamoyl-3-[(2-fluoropyridin-4-yl)amino]-1H-pyrazol-1-yl}-4-(cyanomethyl)piperidine-1-carboxylate] | 9.05
30 | N#CCC1(n2cc(C(N)=O)c(Nc3ccc(S(=O)(=O)C(F)(F)F)cc3)n2)CCN(C(=O)OC2COC2)CC1 [Example 30-26, oxetan-3-yl 4-(4-carbamoyl-3-(4-(trifluoromethylsulfonyl)phenylamino)-1H-pyrazol-1-yl)-4-(cyanomethyl)piperidine-1-carboxylate] | 9.70
31 | N#CCC1(n2cc(C(N)=O)c(Nc3ccccc3)n2)CCN(C(=O)OCCN2CCOCC2)CC1 [Example 30-41, 2-morpholin-4-ylethyl 4-[4-carbamoyl-3-(phenylamino)-1H-pyrazol-1-yl]-4-(cyanomethyl)piperidine-1-carboxylate] | 7.51
